Legend:
PPARα [1] = molecular target: T1, PPARα (Homo sapiens, UniProt Q07869); assay: Activity test using HepG2 cells: ACS and CPT1A gene expression (PPARα agonist activity); type: cell-based; details: C11 at 50 μM and 25 μM, FIG. 4
T1 construct: endogenous in cells; host or cells: HepG2
T1 sequence (Q07869 1-468): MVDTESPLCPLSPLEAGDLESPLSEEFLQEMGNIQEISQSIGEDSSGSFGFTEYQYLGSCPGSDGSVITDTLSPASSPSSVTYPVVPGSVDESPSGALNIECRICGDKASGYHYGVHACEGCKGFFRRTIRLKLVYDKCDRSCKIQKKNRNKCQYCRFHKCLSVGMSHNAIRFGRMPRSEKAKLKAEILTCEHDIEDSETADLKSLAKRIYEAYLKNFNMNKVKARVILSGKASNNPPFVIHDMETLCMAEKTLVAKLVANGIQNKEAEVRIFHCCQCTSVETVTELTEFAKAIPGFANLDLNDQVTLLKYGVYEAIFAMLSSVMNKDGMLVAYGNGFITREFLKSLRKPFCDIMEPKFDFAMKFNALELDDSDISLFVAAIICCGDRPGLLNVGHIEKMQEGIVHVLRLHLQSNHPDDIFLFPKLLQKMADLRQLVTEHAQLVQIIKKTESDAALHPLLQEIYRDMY
Protocol: Next, a novel compound C11 was focused, and further activity tests using HepG2 cells were carried out. […] In the figure, GAPDH represents a housekeeping indicator, ACS represents expression of lipid metabolism gene, and CPT1A represents expression of lipolytic gene. As a drug for comparison, Bezafibrate known as PPARα agonist activity enhancer was used with 50 μM dilution, and the compound C11 of the present invention was used at concentrations of 50 μM and 25 μM.

PPARγ [2] = assay: Differentiation induction method using 3T3-L1 cells: fat cell differentiation induction-associated gene expression (Adiponectine); type: cell-based, mouse; details: 25 μM, 12 μM and 6 μM, FIG. 5
Protocol: Subsequently, an agonist activity test on fat cell differentiation induction-associated genes was similarly carried out for C11, and the results are shown in FIG. 5. In this test, the differentiation induction method using 3T3-L1 cells was conducted. For preparing samples, a plate having a total of 24 depressions of 6 lines×4 rows was used, and a known mouse fat cells was used to observe PPARγ agonist activities. In relation to 5 samples shown in the figure, in order from the right, a sample without insulin administration, a sample dosed with 1.7 μM of insulin, a sample dosed with 25 μM of C11 compound, a sample dosed with 12 μM of C11 compound and a sample dosed with 6 μM of C11 compound are shown. CAPDH is a housekeeping indicator, C/EBPα is a control, and Adiponectine is an expressed gene.

PPARδ = PPARδ agonist activity, reporter gene assay using COS-1 cells; type: cell-based
Protocol: (§1) The agonist activities of PPARα, PPARδ and PPARγ, respectively, were visually verified by a reporter gene assaying method using COS-1 cells so as to evaluate them. The evaluation method is as below.
(§2) The COS-1 cells were collected by trypsinization, centrifuged (1000 rpm, 4° C., 3 min.), and then seeded on a 60 mm Petri dish for cultivation in a density of 6×10^5 cells/well. After cultivation at 37° C. under 5% CO2 for 24 hours, cells were transformed using […]® Transfection Reagent (QIAGEN®). EC buffer ([…]), pPPARα-GAL4 (0.25 μg), pPPARδ-GAL4 (0.25 μg) or pPPARγ-GAL4 (0.25 μg), p17M2G (1 μg), pSEAP control vector (1 μg) were put into a 1.5 ml Eppendorf tube, to which 18 μl of Enhancer was added, and stirred by a vortex for 1 second. This was left to stand at room temperature for 3 minutes, to which 25 μl of Effectene was added, stirred by the voltex for 10 seconds, and left to stand at room temperature for 7 minutes. Simultaneously, the medium for transformation in the 60 mm Petri dish for cultivation was removed, to which […] of medium was added to exchange the medium. Seven minutes later, 1 ml of medium was added to the Eppendorf tube, suspended twice, dropped to a 60 mm Petri dish for cultivation, and cultivated 37° C. under 5% CO2 for 16 hours.
(§3) The cells were collected by trypsinization after 16 hours, centrifuged (1000 rpm, 4° C., 3 min.), and then suspended in 6 ml of medium, and seeded on a 96-well plate at 125 μl/well. The sample solution was added at 1.25 μl/well after 2-3 hours, and cultivated 37° C. under 5% CO2 for 24 hours. Then the medium was collected at 25 μl/well, a secreted alkaline phosphatase (SEAP) activity was measured using GREAT ESCAPE™ SEAP (Clontech Laboratories, Inc.) kit. As the outline, 1× dilution buffer was added at 25 μl/well, mildly stirred, sealed with a scotch tape, and incubated at 65° C. for 30 minutes. Subsequently, it was cooled at 4° C., and returned to room temperature, then an assay buffer was added at 90 μl/well. It was left to stand at room temperature for 5 minutes, to which 10 μl of MUP solution was added at 10 μl/well. At room temperature, it was left to stand in a dark room for 1 hour, and then fluorescence intensity based on 4-methylumbelliferyl phosphate (Ex=360 nm, Em=460 nm) was measured.
(§4) Concentrations of the samples to be evaluated are 50 μM and 5 μM.

PPARα [3] = assay: PPARα agonist activity, reporter gene assay using COS-1 cells; type: cell-based; details: for PPARα agonist activity, ratio to WY14643 50 μM (= 1.00): FIG. 1; for PPARα agonist activity: study of aliphatic chain length of δ-lactones; for difference between PPARα values of the R and S bodies: 25 μM, FIG. 6
Protocol: as §1, §2, §3
(§5) In order to measure the activity for PPARα, luciferase activity measuring cocktail (Invitrogen) was added to other 96 well plate at 100 μl/well to measure the emission intensity. Compensation among each well was performed by dividing the measured value of the luciferase activity by the SEAP activity value.
7 to 9, i.e. C9 to C11 in which the α and β positions in the lactone ring of the raw material are substituted by double bonds, which are the compounds of the present invention. […] The structure of carbon number C8 lacks one side chain in the carbon number C9, and the structure of carbon number C12 adds one side chain to the carbon number C11, in which no double bond is provided. The carbon numbers C9 to C11 represents numbers of the carbon atoms in the compounds of Chemical formulae 4 to 6 and Chemical formulae 7 to 9.

PPARγ [4] = assay: PPARγ agonist activity, reporter gene assay using COS-1 cells; type: cell-based; details: for PPARγ agonist activity compared with control substance 10 μM Trogliazone: 50 μM
Protocol: as §1, §2, §3, §4

PPARs = PPARs agonist activity, collective evaluation (PPARα, δ and γ); type: cell-based; details: for difference between activities of the R body and the S body, three PPARs: FIG. 6, three tests averaged
Protocol: as §1, §2
The cells were collected by trypsinization after 16 hours, centrifuged (1000 rpm, 4° C., 3 min.), and then suspended in 6 ml of medium, and seeded on a 96-well plate at 125 μl/well. […] Then the medium was collected at 25 μl/well, a secreted alkaline phosphatase (SEAP) activity was measured using GREAT ESCAPE™ SEAP (Clontech Laboratories, Inc.) kit. […] At room temperature, it was left to stand in a dark room for 1 hour, and then fluorescence intensity based on 4-methylumbelliferyl phosphate (Ex=360 nm, Em=460 nm) was measured.
as §5

[5] = study of aliphatic chain length of δ-lactones

What does the source list for `CCCCCCC1CC=CC(=O)O1` (stereo not shown) [C11, 6-hexyl-5,6-dihydro-2H-pyran-2-one]?
gene expression (ACS, CPT1A) compared with Bezafibrate 50 μM (PPARα [1]): at least equal to or greater than that of Bezafibrate; activity on fat cell differentiation induction-associated genes (Adiponectine expression) (PPARγ [2]): effective activities

With `CCCCCCCC1CCCC(=O)O1` (stereo not shown) [C12, 6-heptyltetrahydro-2H-pyran-2-one] as the molecule, how does the PPARδ agonist activity (PPARδ; 5 μM, FIG. 2) read?
The PPARδ agonist activity was “little activity”.

What about the “PPARα agonist activity, ratio to WY14643 50 μM (= 1.00)” value (from here on “PPARα agonist activity, ratio”) (PPARα [3]; 5 μM) of the same molecule?
Its value is “did not show strong activity”.

What about the “PPARα agonist activity, ratio” value (PPARα [3]; 50 μM) of the same molecule?
Its value is “did not show strong activity”.

And the PPARγ agonist activity (PPARγ [4]; 5 μM, FIG. 3)?
The PPARγ agonist activity was “little activities”.

What about the “PPARγ agonist activity compared with control substance 10 μM Trogliazone” value (PPARγ [4]; FIG. 3) of the same molecule?
The value was “considerably lower activities than the values of C9 to C11”.

Which “PPARα agonist activity, ratio” value (PPARα [3]; 50 μM) does the source give for `Cc1cccc(Nc2cc(Cl)nc(SCC(=O)O)n2)c1C` [WY14643] here?
Its value is 1.00.

Which PPARδ agonist activity (PPARδ; [5]) does the source give for `CCCCCCC1CCCC(=O)O1` (stereo not shown) [δ-undecanolactone, 6-hexyltetrahydro-2H-pyran-2-one] here?
Its PPARδ agonist activity is “strong agonist activity”.

And the PPARα agonist activity (PPARα [3])?
Its PPARα agonist activity is “strong agonist activity”.

What does the source list for `CCCCC[C@H]1CC=CC(=O)O1` [S body, (S)-6-pentyl-5,6-dihydro-2H-pyran-2-one]?
difference between PPARα values of the R and S bodies (PPARα [3]): significant difference; difference between activities of the R body and the S body, three PPARs (PPARs): no significant difference

Which “difference between PPARα values of the R and S bodies” value (PPARα [3]) does the source give for `CCCCC[C@@H]1CC=CC(=O)O1` [R body, (R)-6-pentyl-5,6-dihydro-2H-pyran-2-one] here?
The value was “significant difference”.

What about the “difference between activities of the R body and the S body, three PPARs” value (PPARs) of the same molecule?
Its value is “no significant difference”.

`CCCCC1CCCC(=O)O1` (stereo not shown) [δ-nonanolactone, 6-butyltetrahydro-2H-pyran-2-one] was tested. Which PPARδ agonist activity (PPARδ; [5]) did it give?
Its PPARδ agonist activity is “strong agonist activity”.

And the PPARα agonist activity (PPARα [3])?
The PPARα agonist activity was “strong agonist activity”.

And the PPARγ agonist activity (PPARγ [4]; [5])?
The PPARγ agonist activity was “strong agonist activity”.

`CCCCCC1CCCC(=O)O1` (stereo not shown) [δ-decanolactone, 6-pentyltetrahydro-2H-pyran-2-one] was tested. Which PPARδ agonist activity (PPARδ; [5]) did it give?
The PPARδ agonist activity was “strong agonist activity”.

And the PPARα agonist activity (PPARα [3])?
Its PPARα agonist activity is “strong agonist activity”.

What about the PPARγ agonist activity (PPARγ [4]; [5]) of the same molecule?
Its PPARγ agonist activity is “strong agonist activity”.

What about the “activity of lactone structures (ring size comparison γ, δ, ϵ)” value (PPARs; comparison of γ-, δ- and ϵ-decanolactone) of the same molecule?
Its value is “relatively strong activity”.

How did the PPARδ agonist activity (PPARδ; 5 μM, FIG. 2) turn out when `CCCC1CCCC(=O)O1` (stereo not shown) [C8, 6-propyltetrahydro-2H-pyran-2-one] was run?
Its PPARδ agonist activity is “little activity”.

And the “PPARα agonist activity, ratio” value (PPARα [3]; 5 μM)?
Its value is “can hardly be expected for the activity”.

What about the PPARγ agonist activity (PPARγ [4]; 5 μM, FIG. 3) of the same molecule?
Its PPARγ agonist activity is “little activities”.

What about the “PPARγ agonist activity compared with control substance 10 μM Trogliazone” value (PPARγ [4]; FIG. 3) of the same molecule?
Its value is “considerably lower activities than the values of C9 to C11”.

From patent US9999612B2, “PPARs agonist activity enhancing drug” (Tsujimoto Chemical Co., Ltd., priority 2012, dated 2018)
